Results: patent US11084789B2, “Mast-cell modulators and uses thereof” (Beth Israel Deaconess Medical Center, Inc., priority 2016, dated 2021)
“Also recorded” adds a separate entry of the source.

What was measured:
[1] = system: wounds of diabetic (STZ) C57B16 mice; test: Wound healing in diabetic mice; format: in vivo; settings: DM mice
From the text: (§1) C57B16 mice were made diabetic (DM) using Streptozotocin (STZ) and rabbits were made DM using alloxan. A 10-day wound-healing period was chosen since at least 80% wounds in non-DM mice and rabbits heal by that time-point. A dressing based on an alginate bandage for topical sustained release of Compound 1 was generated following the methods described in WO 2014/169250, and was then applied the shaved dorsum of DM mice either before (pre-wound) or after wounds (post-wound) were introduced. A comparison was made with the FDA-approved MC stabilizer, disodium cromoglycate (DSCG), 50 mg/kg DSCG (Intraperitoneal (ip) daily, 10 consecutive days prior to wounding) in non-DM and DM mice followed by wound procedure. Wound healing was monitored for 10 days.

[2] = system: macrophages in skin of DM mice; test: M1/M2 macrophages in intact skin of diabetic mice; format: in vivo
From the text: as §1

[3] = biological target: CRAC channel (Rattus norvegicus, UniProt Q5M848); test: Inhibition of thapsigargin-induced calcium influx (intracellular Ca2+, Fluo-4NW) in RBL-2H3 cells; format: cell-based, rodent; settings: 1 μM thapsigargin, 60 min compound incubation
Sequence of CRAC channel (Q5M848 whole entry): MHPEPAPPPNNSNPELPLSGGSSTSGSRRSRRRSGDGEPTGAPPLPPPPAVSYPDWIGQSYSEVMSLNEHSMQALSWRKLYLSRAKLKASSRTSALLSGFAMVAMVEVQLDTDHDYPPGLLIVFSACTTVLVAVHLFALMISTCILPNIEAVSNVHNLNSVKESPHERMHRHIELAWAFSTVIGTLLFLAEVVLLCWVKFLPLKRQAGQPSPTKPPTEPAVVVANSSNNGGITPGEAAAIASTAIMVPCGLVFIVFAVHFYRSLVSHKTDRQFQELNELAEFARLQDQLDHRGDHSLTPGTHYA
Sequence of CRAC channel (P84903 23-685, further chain): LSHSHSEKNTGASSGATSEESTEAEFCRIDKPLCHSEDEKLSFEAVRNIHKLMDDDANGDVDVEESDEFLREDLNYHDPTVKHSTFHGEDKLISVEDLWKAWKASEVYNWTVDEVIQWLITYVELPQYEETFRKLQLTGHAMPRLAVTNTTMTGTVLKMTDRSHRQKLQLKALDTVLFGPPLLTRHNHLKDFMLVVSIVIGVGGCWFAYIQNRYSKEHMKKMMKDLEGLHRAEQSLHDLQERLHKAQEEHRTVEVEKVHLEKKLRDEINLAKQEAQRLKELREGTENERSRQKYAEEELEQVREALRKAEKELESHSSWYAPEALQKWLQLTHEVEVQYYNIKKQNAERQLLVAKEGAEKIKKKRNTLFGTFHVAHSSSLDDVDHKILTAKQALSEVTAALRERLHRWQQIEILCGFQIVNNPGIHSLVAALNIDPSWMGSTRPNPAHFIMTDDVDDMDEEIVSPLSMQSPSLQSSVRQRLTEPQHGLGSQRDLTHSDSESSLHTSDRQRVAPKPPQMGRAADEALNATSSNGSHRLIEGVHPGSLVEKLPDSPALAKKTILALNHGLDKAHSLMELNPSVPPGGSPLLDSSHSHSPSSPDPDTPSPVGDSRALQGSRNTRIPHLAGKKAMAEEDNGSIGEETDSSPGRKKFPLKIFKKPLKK
Description: RBL-2H3 cells (ATCC) were seeded in 96-well plate at 4×10^4 cells per well in DMEM-supplemented with 2% FBS and allowed to adhere overnight. Culture medium was then replaced with 50 μl of Ca^2+-free Tyrode solution to load Ca^2+-probe Fluo-4NW (Molecular Probe, Thermo Fisher, MA, USA) at 1:1 to the cells. New compound at indicated concentration was supplied during the probe loading from the beginning. Cells were incubated in the presence or absence of new compound for 60 minutes in the Ca^2+-free medium at 37° C. During the last 5 minutes of incubation, cells were treated with 1 μM thapsigargin (Sigma Aldrich) to deplete [Ca^2+]ER. 20 mM CaCl2 in saline solution was supplemented back to the [Ca^2+]ER-depleted cells to be 2 mM as final. Cell medium was removed 1 minute after Ca^2+ reloading, and changes in Fluo-4NW fluorescence (RFU) were recorded with the multi-mode plate reader (FilterMax F5, Molecular Devices/Thermo Fisher Scientific, MA, USA) at an excitation wavelength of 485 nm and an emission wavelength of 535 nm.
(§2) IC50 and EC50 were calculated by nonlinear regression using Prims Graphpad software. Statistical analysis was performed by one-way ANOVA and post-hoc test (Tukey's test).
Inhibitory activity of calcium influx by the described compounds was determined using the RBL-2H3 rodent MC cell line as the primary in vitro assay. […]

[4] = system: TNFα; test: TNFα protein secretion by activated RBL cells (ELISA); format: cell-based, rodent; settings: secreted TNFα (pre-stored plus de novo) 4 hours after Ca2+ re-exposure
Description: (§3) [Ca^2+]ER in RBL2H3 cells were depleted by Tg in the same manner in the presence of the CRAC channel blockers as for [Ca^2+]i measurement but without loading the cells with Fluo-4NW. Then 200 μl of DMEM-3% FBS (containing 3 mM Ca^2+) was supplemented back in the presence of the corresponding concentration of CRAC channel blockers. Thirty minutes after Ca^2+-add back culture supernatant was collected for degranulation measurement. Degranulation was measured as secreted β-hexosaminidase according to the protocol of the assay kit (Sigma-Aldrich, MO, USA). Nuclear fraction was prepared from the cells for NFAT by using a subcellular protein fractionation kit (NE-PER™ Nuclear and Cytoplasmic Extraction Reagents, Pierce Biotechnology, Thermo Fisher Scientific, MA, USA). Nuclear NFAT-c1 was measured with an ELISA kit (Active Motif, CA, USA). At this time point TNFα was measured as pre-stored release with ELISA kits (R&D Systems, MN, USA). In a part after Ca^2+ add back incubation was prolonged for 4 h to measure de novo production of the cytokine TNFα.
as §2
Mast cells can secrete pre-stored TNFα immediately upon activation, as well as de novo synthesized TNFα that takes a few hours to produce. RBL cells were activated similarly as described above, in the presence of various concentrations of a CRAC channel blocker. 4 Hours after RBL cells were re-exposed to Ca^2+, secreted TNFα (which accounted for the combined protein from pre-stored and de novo synthesized TNFα) in the supernatants were measured by ELISA.

[5] = system: RBL-2H3 cells; test: Mast cell degranulation: β-hexosaminidase release from thapsigargin-activated RBL-2H3 cells; format: cell-based, rodent; settings: 1 μM thapsigargin
Description: as §3
Compound 12 was used to determine the inhibition of MC degranulation by measuring the release of pre-stored β-hexosaminidase 03-hex) upon MC activation. […] 30 Minutes after assay media were replenished with extracellular Ca^2+, supernatants and cell lysates were analyzed for β-hex concentrations by ELISA.

[6] = system: NFAT-c1; test: Nuclear translocation of NFAT in activated RBL cells (nuclear NFAT-c1 ELISA); format: cell-based, rodent
Description: as §3
The inhibition of nuclear translocation of the nuclear factor of activated T-cells (NFAT) by compound 12 in activated MCs was determined. […] Nuclear fraction was prepared from the cells by subcellular protein fractionation, and the nuclear NFAT-c1 content was measured by ELISA. […]

Compound: O=C(Nc1c(F)cccc1F)c1cn(Cc2ccc(Cl)cc2Cl)c2ccccc12 [Compound 1, 1-[(2,4-dichlorophenyl)methyl]-N-(2,6-difluorophenyl)indole-3-carboxamide]
- wound healing ([1]; topical alginate dressing, 10 days pre-wounding or 10 days post-wounding, monitored 10 days): improved wound healing similar to systemic DSCG pre-treatment
- number of M2 macrophages in skin ([2]; treatment for 10 days without any wound): increased the number of M2 macrophages

Compound: O=C(Nc1nn(Cc2ccc(Cl)cc2Cl)c2ccccc12)c1ccccc1F [Compound 3, N-[1-[(2,4-dichlorophenyl)methyl]indazol-3-yl]-2-fluoro-benzamide]
- IC50 [3]: 29000 nM

Compound: O=C(Nc1c(F)cccc1F)c1nn(Cc2ccc(Cl)cc2Cl)c2ccccc12 [Compound 7, 1-[(2,4-dichlorophenyl)methyl]-N-(2,6-difluorophenyl)indazole-3-carboxamide]
- IC50 [4]: 470 nM

Compound: O=C(Nc1c(F)cccc1Cl)c1nn(Cc2ccc(Cl)cc2Cl)c2ccccc12 [Compound 8, N-(2-chloro-6-fluoro-phenyl)-1-[(2,4-dichlorophenyl)methyl]indazole-3-carboxamide]
- IC50 [4]: 740 nM

Compound: O=C(Nc1ccncc1F)c1cn(Cc2ccc(Cl)cc2Cl)c2ccccc12 [Compound 11, 1[(2,4-dichlorophenyl)methyl]-N-(3-fluoro-4-pyridyl)indole-3-carboxamide]
- IC50 [4]: 580 nM

Compound: O=C(Nc1nn(Cc2ccc(Cl)cc2Cl)c2ccccc12)c1ccncc1F [Compound 12, N-[1-[(2,4-dichlorophenyl)methyl]indazol-3-yl]-3-fluoro-pyridine-4-carboxamide]
- inhibition of β-hex release at the highest concentration tested ([5]; 40% of β-hex released without inhibitor): nearly complete inhibition of β-hex release
- inhibition of β-hex release ([5]; 30 min after Ca2+ add back, various concentrations): significantly and dose-dependently inhibited the release of β-hex; also recorded: dose-dependent inhibition
- IC50 [4]: 280 nM
- nuclear fraction of NFAT-c1 in activated RBL cells ([6]; 1 μM thapsigargin, 30 min after Ca2+ add back, various concentrations, 5-fold increase without blocker): significantly and dose-dependently reduced the nuclear fraction of NFAT-c1; also recorded: dose-dependent inhibition
- levels of nuclear NFAT at 10 μM and higher concentrations ([6]; 10 μM and higher, activated RBL cells): restore the levels of nuclear NFAT to that of resting MCs

Compound: O=C(Nc1ccc(F)cc1F)c1nn(Cc2ccc(Cl)cc2Cl)c2ccccc12 [Compound 14, 1-[(2,4-dichlorophenyl)methyl]-N-(2,4-difluorophenyl)indazole-3-carboxamide]
- IC50 [4]: 640 nM

Compound: O=C(Nc1c(F)cncc1F)c1nn(Cc2ccc(Cl)cc2Cl)c2ccccc12 [Compound 15, 1-[(2,4-dichlorophenyl)methyl]-N-(3,5-difluoro-4-pyridyl)indazole-3-carboxamide]
- IC50 [4]: 140 nM

Compound: O=C([O-])c1cc(=O)c2c(OCC(O)COc3cccc4oc(C(=O)[O-])cc(=O)c34)cccc2o1.[Na+].[Na+] [DSCG, disodium cromoglycate, reference compound]
- wound healing ([1]; 50 mg/kg ip daily, 10 consecutive days prior to wounding, p<0.05): improved diabetic mouse wound healing
- M1/M2 ratio in intact skin ([2]; DSCG treatment): reduced M1/M2 ratio in intact skin
